Experimental findings from patent US20260327225A1, “HETEROCYCLIC COMPOUNDS AS TRIGGERING RECEPTOR EXPRESSED ON MYELOID CELLS 2 AGONISTS AND METHODS OF USE” (VIGIL NEUROSCIENCE, INC., priority 2023, published 2026) are described below.

SMILES strings stand for the structures. Read-outs that look alike come from different tables or passages of the source.

In the experiment the target is T1, human TREM2 (Homo sapiens, UniProt Q9NZC2).
T1 construct: expressed in transfected cells; host or cells: HEK293T-hTREM2 cells (HEK cell line expressing human TREM2 and DAP12)
In words: TREM2 agonist potency by cellular phosphorylation of Syk (AlphaLisa) in HEK293T-hTREM2 cells expressing human TREM2 and DAP12. In kind it is cell-based. Here is the method: In vitro Measurement of Triggering Receptor Expressed on Myeloid Cells 2 activity using cellular phosphorylation of Spleen Tyrosine Kinase (“Syk”) Assays
Measurement of TREM2 agonist potency was done using a HEK cell line expressing human TREM2 and DAP12 (HEK293T-hTREM2 cells). Binding of small molecules to, and activation of, TREM2 increases the phosphorylation of Syk. The resultant levels of Syk phosphorylation are measured using a commercial AlphaLisa reagent kit. To perform the assay, HEK-hTREM2 cells were plated at 14,000 cells per well in a 384 well plate, in 25 μL of complete growth media and incubated at 37° C., 5% CO2 for 20-24 hours.
Prior to the assay, test compounds were diluted in the 384 well plates in assay buffer and allowed to equilibrate for 30 minutes. Growth media was removed from cell plates by inversion on blotting paper, and 25 μL of test articles in assay buffer was added to cells. Cells were incubated for 45 minutes at room temperature. After 45 minutes, assay buffer was removed and 10 μL of lysis buffer was added. Plates were shaken for 20 minutes at 350 RPM at room temperature. After complete lysis, AlphaLisa reagents were added to the lysate, and fluourescence intensity was measured using a Perkin Elmer Envision plate reader. Intensities were used to generate a standard curve, and % activation was calculated. Curve fitting was performed using Prism v9 software, log(agonist) vs response—variable slope (four parameters), and EC50s were calculated from the curve fit.
The results presented in Table B have been generated with the in vitro assay described above. This assay may be used to test any of the compounds described herein to assess and characterize a compound's ability to act as an agonist of TREM2.

The mark [1] stands for this setting: HEK293 cells expressing hTREM2 and DAP12, 45 minutes at room temperature, Syk phosphorylation, AlphaLisa, read-out: hTREM2 EC50.

T1 sequence (Q9NZC2 19-230): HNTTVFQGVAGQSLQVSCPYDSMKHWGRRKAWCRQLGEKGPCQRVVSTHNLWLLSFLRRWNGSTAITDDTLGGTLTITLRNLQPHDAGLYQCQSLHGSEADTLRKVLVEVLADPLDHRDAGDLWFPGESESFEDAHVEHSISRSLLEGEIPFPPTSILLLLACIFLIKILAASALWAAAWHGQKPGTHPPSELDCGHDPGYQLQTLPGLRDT
T1 sequence (O43914 22-113 partner): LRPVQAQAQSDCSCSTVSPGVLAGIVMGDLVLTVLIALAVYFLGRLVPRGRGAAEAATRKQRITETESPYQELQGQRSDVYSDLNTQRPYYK

In the case of `Cc1cc2c(-n3cccc3)nc(N3C[C@@H](C)O[C@@H](c4cnn(C5CC5)c4)C3)nc2nc1C` [Example 67, (2S,6R)-2-(1-cyclopropyl-pyrazol-4-yl)-4-(6,7-dimethyl-4-pyrrol-1-yl-pyrido[2,3-d]pyrimidin-2-yl)-6-methyl-morpholine], the EC50 (usually the concentration giving half of the maximal effect) lay in the range of 100 to 500 nM.

Regarding `Cc1nc2nc(C3CCOC(c4cnnc(N(C)C)c4)C3)nc(C34CC(C(F)(F)F)(C3)C4)c2nc1C` (racemic) [Example 129, N,N-dimethyl-5-[rac-cis-4-[6,7-dimethyl-4-[3-(trifluoromethyl)-1-bicyclo[1.1.1]pentanyl]pteridin-2-yl]tetrahydropyran-2-yl]pyridazin-3-amine], the EC50 under setting [1] is less than 100 nM.

As to `COC(=O)c1cc2c(-c3ccc(F)cc3F)nc(N3C[C@@H](C)O[C@@H](c4cnn(C5CC5)c4)C3)nc2nc1C` [Example 1, methyl 2-[(2S,6R)-2-(1-cyclopropylpyrazol-4-yl)-6-methyl-morpholin-4-yl]-4-(2,4-difluorophenyl)-7-methyl-pyrido[2,3-d]pyrimidine-6-carboxylate], the EC50 under setting [1] is less than 100 nM.

With `Cc1nc2nc(N3C[C@@H](C)O[C@@H](c4cnn(C5CC5)c4)C3)nc(-c3ccc(C#N)cc3F)c2nc1C` [Example 91, 4-[2-[(2S,6R)-2-(1-cyclopropylpyrazol-4-yl)-6-methyl-morpholin-4-yl]-6,7-dimethylpteridin-4-yl]-3-fluoro-benzonitrile], the EC50 under setting [1] is less than 100 nM.

In the case of `Cc1nnc(-c2cc3c(-c4ccc(F)cc4F)nc(N4C[C@@H](C)O[C@@H](c5cnn(C6CC6)c5)C4)nc3nc2C)o1` [Example 12, (2S,6R)-2-(1-cyclopropylpyrazol-4-yl)-4-[4-(2,4-difluorophenyl)-7-methyl-6-(5-methyl-1,3,4-oxadiazol-2-yl)pyrido[2,3-d]pyrimidin-2-yl]-6-methyl-morpholine], under setting [1], the EC50 is less than 100 nM.

On to `Cc1noc(-c2cc3c(C45CC(C(F)(F)F)(C4)C5)nc(N4C[C@@H](C)O[C@@H](c5cnn(C6CC6)c5)C4)nc3nc2C)n1` [Example 22, (2S,6R)-2-(1-cyclopropyl-pyrazol-4-yl)-6-methyl-4-[7-methyl-6-(3-methyl-1,2,4-oxadiazol-5-yl)-4-[3-(trifluoromethyl)-1-bicyclo[1.1.1]pentanyl]-pyrido[2,3-d]pyrimidin-2-yl]morpholine], for which the EC50 under setting [1] is less than 100 nM.

As to `Cc1nc2nc([C@H]3CCO[C@@H](c4cnn(C5CC5)c4)C3)nc(-c3ccc(F)cc3F)c2cc1C(=O)O` [Example 9, 4-(2,4-difluorophenyl)-7-methyl-2-[(2R,4S)-2-(1-cyclopropylpyrazol-4-yl)tetrahydropyran-4-yl]pyrido[2,3-d]pyrimidine-6-carboxylic acid], the EC50 under setting [1] is more than 500 nM.

Turning to `Cc1nc2nc(C3CCOC(c4ccc5nn(C)cc5c4)C3)nc(-c3ccc(F)cc3F)c2nc1C` (centres unmarked) [Example 114, 4-(2,4-difluorophenyl)-6,7-dimethyl-2-[2-(2-methylindazol-5-yl)tetrahydropyran-4-yl]pteridine], under setting [1], the EC50 is less than 100 nM.

On to `Cc1noc(-c2cc3c(-c4ccc(F)cc4F)nc(N4CCCC(N5CCOCC5)C4)nc3nc2C)n1` (centres unmarked) [Example 15, 4-[1-[4-(2,4-difluorophenyl)-7-methyl-6-(3-methyl-1,2,4-oxadiazol-5-yl)pyrido[2,3-d]pyrimidin-2-yl]-3-piperidyl]morpholine], for which the EC50 under setting [1] was more than 500 nM.

Take `Cc1nc2nc(N3C[C@@H](C)O[C@@H](c4cnn(C5CC5)c4)C3)nc(C34CC(C(F)(F)F)(C3)C4)c2cc1C(F)(F)F` [Example 74, (2S,6R)-2-(1-cyclopropyl-1H-pyrazol-4-yl)-6-methyl-4-(7-methyl-6-(trifluoromethyl)-4-(3-(trifluoromethyl)-bicyclo[1.1.1]pentan-1-yl)pyrido[2,3-d]pyrimidin-2-yl)morpholine]: the EC50 under setting [1] is less than 100 nM.

For `Cc1nc2nc([C@H]3CCO[C@@H](c4cnn(C5CC5)c4)C3)nc(C34C5C6C7C5C3C7C64)c2nc1C` (stereo partly drawn) [Example 140, 2-((2R,4S)-2-(1-cyclopropyl-1H-pyrazol-4-yl)tetrahydro-2H-pyran-4-yl)-6,7-dimethyl-4-(cuban-1-yl)pteridine], the EC50 under setting [1] was less than 100 nM.

For `Cc1nc2nc([C@H]3CCO[C@@H](c4cn(C)c(=O)s4)C3)nc(C34CC(C(F)(F)F)(C3)C4)c2nc1C` [Example 108, 5-[(2R,4S)-4-[6,7-dimethyl-4-[3-(trifluoromethyl)-1-bicyclo[1.1.1]pentanyl]pteridin-2-yl]tetrahydropyran-2-yl]-3-methyl-thiazol-2-one], the EC50 under setting [1] was less than 100 nM.

On to `Cc1nc2nc(C3CCOC(c4ccn5nccc5c4)C3)nc(C34CC(C(F)(F)F)(C3)C4)c2nc1C` (centres unmarked) [Example 109, 6,7-dimethyl-2-(2-pyrazolo[1,5-a]pyridin-5-yltetrahydropyran-4-yl)-4-[3-(trifluoromethyl)-1-bicyclo[1.1.1]pentanyl]pteridine], for which the EC50 under setting [1] was less than 100 nM.

As to `Cc1noc(-c2cc3c(C4CCCCC4)nc(N4C[C@@H](C)O[C@@H](c5cnn(C6CC6)c5)C4)nc3nc2C)n1` [Example 33, (2S,6R)-4-[4-cyclohexyl-7-methyl-6-(3-methyl-1,2,4-oxadiazol-5-yl)-pyrido[2,3-d]pyrimidin-2-yl]-2-(1-cyclopropylpyrazol-4-yl)-6-methyl-morpholine], the EC50 under setting [1] was less than 100 nM.

Turning to `Cc1nnc(-c2cc3c(C45CC(C(F)(F)F)(C4)C5)nc([C@H]4CCO[C@@H](c5cnn(C6CC6)c5)C4)nc3nc2C)o1` [Example 23, 2-(2-((2R,4S)-2-(1-cyclopropyl-1H-pyrazol-4-yl)tetrahydro-2H-pyran-4-yl)-7-methyl-4-(3-(trifluoromethyl)bicyclo[1.1.1]pentan-1-yl)pyrido[2,3-d]pyrimidin-6-yl)-5-methyl-1,3,4-oxadiazole], the EC50 under setting [1] was less than 100 nM.

`Cc1nc2nc(C3CCOC(c4cnn5c4CCCC5)C3)nc(C34CC(C(F)(F)F)(C3)C4)c2nc1C` (centres unmarked) [Example 123, 6,7-dimethyl-2-[2-(4,5,6,7-tetrahydropyrazolo[1,5-a]pyridin-3-yl)tetrahydropyran-4-yl]-4-[3-(trifluoromethyl)-1-bicyclo[1.1.1]pentanyl]pteridine]: under setting [1], the EC50 is more than 500 nM.

Consider `Cc1nc2nc(N3C[C@@H](C)O[C@@H](c4cnn(CC(F)F)c4)C3)nc(C34CC(C(F)(F)F)(C3)C4)c2cc1C#N` [Example 70, 2-((2S,6R)-2-(1-(2,2-difluoroethyl)-1H-pyrazol-4-yl)-6-methyl-morpholino)-7-methyl-4-(3-(trifluoromethyl)bicyclo[1.1.1]pentan-1-yl)pyrido[2,3-d]pyrimidine-6-carbonitrile], for which the EC50 under setting [1] was less than 100 nM.

On to `Cc1nc2nc([C@H]3CCO[C@@H](c4cnn(C5CC5)c4)C3)nc(C34CC(C(F)(F)F)(C3)C4)c2cc1-c1cnn(C)c1` [Example 26, 2-((2R,4S)-2-(1-cyclopropyl-1H-pyrazol-4-yl)tetrahydro-2H-pyran-4-yl)-7-methyl-6-(1-methyl-1H-pyrazol-4-yl)-4-(3-(trifluoromethyl)bicyclo[1.1.1]pentan-1-yl)pyrido[2,3-d]pyrimidine], for which, under setting [1], the EC50 was less than 100 nM.

For `Cc1nc2nc([C@H]3CCO[C@@H](c4cnn(C5CC5)c4)C3)nc(-c3ccc(F)cc3F)c2cc1C#N` [Example 18, 2-[(2R,4S)-2-(1-cyclopropylpyrazol-4-yl)tetrahydropyran-4-yl]-4-(2,4-difluorophenyl)-7-methyl-pyrido[2,3-d]pyrimidine-6-carbonitrile], under setting [1], the EC50 is less than 100 nM.

Consider `Cc1nc2nc(N3C[C@@H](C)O[C@@H](c4cnn(C5CC5)c4)C3)nc(-c3ccc(F)cc3F)c2cc1C#N` [Example 21, 2-[(2S,6R)-2-(1-cyclopropylpyrazol-4-yl)-6-methyl-morpholin-4-yl]-4-(2,4-difluorophenyl)-7-methyl-pyrido[2,3-d]pyrimidine-6-carbonitrile], for which, under setting [1], the EC50 was less than 100 nM.

In the case of `Cc1nc2nc([C@H]3CCO[C@@H](c4cn(C)c(=O)s4)C3)nc(C34CC(C(F)(F)F)(C3)C4)c2nc1C` (racemic) [Example 106, 3-methyl-5-[rac-(2R,4S)-4-[6,7-dimethyl-4-[3-(trifluoromethyl)-1-bicyclo[1.1.1]pentanyl]-pteridin-2-yl]tetrahydropyran-2-yl]thiazol-2-one], the EC50 under setting [1] is less than 100 nM.

As to `Cc1noc(-c2cc3c(-c4ccc(F)cc4F)nc([C@H]4CCO[C@@H](c5cnn(C6CC6)c5)C4)nc3nc2C)n1` (racemic) [Example 19, 5-[4-(2,4-difluorophenyl)-7-methyl-2-[rac-(2R,4S)-2-(1-cyclopropylpyrazol-4-yl)-tetrahydropyran-4-yl]pyrido[2,3-d]pyrimidin-6-yl]-3-methyl-1,2,4-oxadiazole], the EC50 under setting [1] was less than 100 nM.

Take `Cc1nc2nc(N3CCO[C@@H](c4cnn(C)c4)C3)nc(C3CCCCC3)c2cc1C#N` [Example 45, 4-cyclohexyl-7-methyl-2-[(2S)-2-(1-methyl-pyrazol-4-yl)morpholin-4-yl]pyrido[2,3-d]pyrimidine-6-carbonitrile]: under setting [1], the EC50 lay in the range of 100 to 500 nM.
